For the experiment, the system named is P388 leukemia ip, CD2F1 mice, survival T/C. The experiment can be described thus: NCI In Vivo Anticancer Drug Screen. Data for tumor model P388 Leukemia (intraperitoneal) in CD2F1 (CDF1) mice. The settings on record: endpoint: median survival time, higher = longer survival. The method in brief: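 Mice carrying the transplanted tumor received test compound or vehicle. Survival was recorded in each group, and the value is the treated-group measurement divided by that of the vehicle-treated control group.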

Where [1] appears, read: dose: 50.0 mg/kg/injection, schedule: Q01DX009 (ip), vehicle: Klucel (hydroxypropylcellulose) (HPC).
Where [2] appears, read: dose: 100.0 mg/kg/injection, schedule: Q01DX009 (ip), vehicle: Klucel (hydroxypropylcellulose) (HPC).
Where [3] appears, read: dose: 100.0 mg/kg/injection, schedule: Q04DX003 (ip), vehicle: saline.
Where [4] appears, read: dose: 200.0 mg/kg/injection, schedule: Q04DX003 (ip), vehicle: saline.
Where [5] appears, read: dose: 400.0 mg/kg/injection, schedule: Q04DX003 (ip), vehicle: saline.
Where [6] appears, read: dose: 12.5 mg/kg/injection, schedule: Q01DX009 (ip), vehicle: saline with Tween-80.
Where [7] appears, read: dose: 25.0 mg/kg/injection, schedule: Q01DX009 (ip), vehicle: saline with Tween-80.
[8] abbreviates: dose: 50.0 mg/kg/injection, schedule: Q01DX009 (ip), vehicle: saline with Tween-80.
Where [9] appears, read: dose: 100.0 mg/kg/injection, schedule: Q01DX009 (ip), vehicle: saline with Tween-80.
The mark [10] stands for this setting: dose: 25.0 mg/kg/injection, schedule: Q01DX005 (ip), vehicle: Klucel (hydroxypropylcellulose) (HPC).
Where [11] appears, read: dose: 50.0 mg/kg/injection, schedule: Q01DX005 (ip), vehicle: Klucel (hydroxypropylcellulose) (HPC).
The mark [12] stands for this setting: dose: 200.0 mg/kg/injection, schedule: Q01DX009 (ip), vehicle: saline with Tween-80.

Several values for one entry are separate records, joined by “and”; a condition that tells them apart may be missing. Equal values may be shown once. Toxic doses and inconclusive results are not listed.

`COc1ccc(Cc2nnc(C)c3c(C)[nH]nc23)cc1OC`: the T/C is 92 % of control under setting [1] and 92 % of control under setting [2].
Consider `CCOC(=O)Nc1cc2c(c(N)n1)N=C(c1ccc(Cl)c(Cl)c1)CN2`, for which the T/C is 121 % of control (dose: 5.0 mg/kg/injection, schedule: Q01DX005 (ip), vehicle: saline with Tween-80) and 158 % of control (dose: 10.0 mg/kg/injection, schedule: Q01DX005 (ip), vehicle: saline with Tween-80).
`CCOP(=O)(O)C1CCCC(C)[N-]1.CCOP(=O)(O)C1CCCC(C)[N-]1.[Fe+2]` (stereo not given): the T/C by setting is: (dose: 25.0 mg/kg/injection, schedule: Q04DX003 (ip), vehicle: Klucel (hydroxypropylcellulose) (HPC)) 101 % of control; (dose: 50.0 mg/kg/injection, schedule: Q04DX003 (ip), vehicle: Klucel (hydroxypropylcellulose) (HPC)) 95 % of control; (dose: 100.0 mg/kg/injection, schedule: Q04DX003 (ip), vehicle: Klucel (hydroxypropylcellulose) (HPC)) 100 % of control and 89 % of control.
For the molecule `O=C1OC2=C(CCCc3ccccc32)C(N(c2ccccc2)c2ccccc2)C1(Cl)Cl` (stereo not given), the T/C under setting [1] was 96 % of control; the T/C under setting [2] is 88 % of control; the T/C (dose: 200.0 mg/kg/injection, schedule: Q01DX009 (ip), vehicle: Klucel (hydroxypropylcellulose) (HPC)) is 89 % of control.
Take `Cc1ccc(C2(C)C(=O)c3ccccc3C2=O)cc1`: the T/C reads like this: (dose: 100.0 mg/kg/injection, schedule: Q04DX002 (ip), vehicle: saline) 101 % of control; (dose: 200.0 mg/kg/injection, schedule: Q04DX002 (ip), vehicle: saline) 100 % of control; (dose: 400.0 mg/kg/injection, schedule: Q04DX002 (ip), vehicle: saline) 107 % of control.
`CCC(c1ccc(OCc2ccccc2)cc1)c1cc2c(cc1OC)OCO2` (stereo not given): the T/C by setting is: (dose: 25.0 mg/kg/injection, schedule: Q01DX005 (ip), vehicle: distilled water + Tween-80) 98 % of control; (dose: 50.0 mg/kg/injection, schedule: Q01DX005 (ip), vehicle: distilled water + Tween-80) 92 % of control; (dose: 100.0 mg/kg/injection, schedule: Q01DX005 (ip), vehicle: distilled water + Tween-80) 86 % of control; (dose: 200.0 mg/kg/injection, schedule: Q01DX005 (ip), vehicle: distilled water + Tween-80) 88 % of control.
Consider `O=C(O)C1(NO)CCCC1`, for which the T/C is 100 % of control under setting [3], 118 % of control under setting [4] and 95 % of control under setting [5].
In the case of `COc1ccc(C(C)(C)CC(C)(C)C)cc1`, the T/C was 101 % of control under setting [6], 104 % of control under setting [7], 104 % of control under setting [8] and 109 % of control under setting [9].
For the molecule `O=c1[nH]c2cc(Cl)ccc2n1C1CCN(CCCC(c2ccc(F)cc2)c2ccc(F)cc2)CC1`, the T/C reads like this: (dose: 6.25 mg/kg/injection, schedule: Q01DX005 (ip), vehicle: saline with Tween-80) 106 % of control; (dose: 12.5 mg/kg/injection, schedule: Q01DX005 (ip), vehicle: saline with Tween-80) 110 % of control; (dose: 25.0 mg/kg/injection, schedule: Q01DX005 (ip), vehicle: saline with Tween-80) 110 % of control.
`COc1c2c(cc3c1-c1ccc(OC)c(=O)cc1C(NC(C)=O)CC3)OCO2` (stereo not given): the T/C runs as follows: (dose: 0.47 mg/kg/injection, schedule: Q01DX009 (ip), vehicle: distilled water + Tween-80) 157 % of control; (dose: 0.94 mg/kg/injection, schedule: Q01DX009 (ip), vehicle: distilled water + Tween-80) 166 % of control; (dose: 3.75 mg/kg/injection, schedule: Q01DX009 (ip), vehicle: distilled water + Tween-80) 155 % of control; (dose: 7.5 mg/kg/injection, schedule: Q01DX009 (ip), vehicle: distilled water + Tween-80) 161 % of control.
Regarding `CC(=O)OC1NC(=O)C(OC(C)=O)NC1=O` (stereo not given), the T/C was 100 % of control under setting [10]; 98 % of control and 102 % of control (2×) under setting [11]; 101 % of control (2×) and 120 % of control (dose: 100.0 mg/kg/injection, schedule: Q01DX005 (ip), vehicle: Klucel (hydroxypropylcellulose) (HPC)); 102 % of control and 107 % of control and 110 % of control (dose: 200.0 mg/kg/injection, schedule: Q01DX005 (ip), vehicle: Klucel (hydroxypropylcellulose) (HPC)).
Take `CC1OC2CC(=O)OC2C2=C1C(=O)c1cc(-c3cc(O)c4c(c3)C(=O)C3=C(C4=O)C4OC(=O)CC4OC3C)cc(O)c1C2=O` (stereo not given): the T/C (dose: 0.95 mg/kg/injection, schedule: Q01DX005 (ip), vehicle: DMSO) was 98 % of control; the T/C (dose: 1.9 mg/kg/injection, schedule: Q01DX005 (ip), vehicle: DMSO) was 107 % of control; the T/C (dose: 3.8 mg/kg/injection, schedule: Q01DX005 (ip), vehicle: DMSO) was 99 % of control.
With `Cc1cnc2ncn(Cc3c[nH]c(=O)[nH]c3=O)c(=O)c2c1`, the T/C runs as follows: (dose: 12.5 mg/kg/injection, schedule: Q01DX001 (ip), vehicle: saline with Tween-80) 110 % of control; (dose: 25.0 mg/kg/injection, schedule: Q01DX001 (ip), vehicle: saline with Tween-80) 107 % of control; (dose: 50.0 mg/kg/injection, schedule: Q01DX001 (ip), vehicle: saline with Tween-80) 104 % of control; (dose: 100.0 mg/kg/injection, schedule: Q01DX001 (ip), vehicle: saline with Tween-80) 104 % of control.
With `COC(=O)Cc1[nH]ncc1C(=O)OC`, the T/C was 106 % of control (dose: 60.0 mg/kg/injection, schedule: Q01DX005 (ip), vehicle: saline); 103 % of control (dose: 120.0 mg/kg/injection, schedule: Q01DX005 (ip), vehicle: saline); 96 % of control (dose: 240.0 mg/kg/injection, schedule: Q01DX005 (ip), vehicle: saline).
`CN(C)[C@@H]1C(=O)C(C(=O)NCN2CCN(C(=N)N=C(N)N)CC2)=C(O)[C@@]2(O)C(=O)C3=C(O)c4c(O)cccc4[C@@](C)(O)[C@H]3C[C@@H]12`: the T/C by setting is: (dose: 1.8 mg/kg/injection, schedule: Q01DX005 (ip), vehicle: saline) 111 % of control; (dose: 3.0 mg/kg/injection, schedule: Q01DX005 (ip), vehicle: saline) 117 % of control; (dose: 8.33 mg/kg/injection, schedule: Q01DX005 (ip), vehicle: saline) 154 % of control; (dose: 10.0 mg/kg/injection, schedule: Q01DX005 (ip), vehicle: saline) 89 % of control.
As for `CN(C)c1ccc(/C=N/NC(=O)C(=O)NCc2ccco2)cc1`, the T/C is 94 % of control under setting [8], 86 % of control under setting [9] and 91 % of control under setting [12].
On to `CN1C(=O)C2C=CC1c1ccccc12` (stereo not given), for which the T/C is 104 % of control under setting [3], 106 % of control under setting [4] and 99 % of control under setting [5].
For `[B-][N+](C)(C)Cc1ccccc1`, the T/C under setting [6] was 90 % of control, the T/C under setting [7] is 90 % of control and the T/C under setting [8] is 109 % of control.
As for `O=[N+]([O-])c1ccc(S(=O)(=O)/N=C/c2ccccc2)cc1`, the T/C runs as follows: under setting [8], 96 % of control; under setting [9], 98 % of control; under setting [12], 95 % of control.
The corresponding values for `C[n+]1ccccc1C1(O)CCCC1` are 94 % of control, 100 % of control and 100 % of control.
Take `Cc1ccc(OP(=O)(Oc2ccc(C)cc2)Oc2ccc(C)cc2)cc1.Cc1ccc(OP(=O)(Oc2ccc(C)cc2)Oc2ccc(C)cc2)cc1.Cc1ccc(OP(=O)(Oc2ccc(C)cc2)Oc2ccc(C)cc2)cc1.Cc1ccc(OP(=O)(Oc2ccc(C)cc2)Oc2ccc(C)cc2)cc1.[Cr+3].[O-][Cl+3]([O-])([O-])O`: the T/C reads like this: (dose: 100.0 mg/kg/injection, schedule: Q01DX001 (ip), vehicle: Klucel (hydroxypropylcellulose) (HPC)) 100 % of control; (dose: 200.0 mg/kg/injection, schedule: Q01DX001 (ip), vehicle: Klucel (hydroxypropylcellulose) (HPC)) 96 % of control; (dose: 400.0 mg/kg/injection, schedule: Q01DX001 (ip), vehicle: Klucel (hydroxypropylcellulose) (HPC)) 89 % of control.
Take `O=C1c2ccccc2NC2(C(=O)Nc3ccccc32)N1N1CCOCC1` (stereo not given): the T/C by setting is: (dose: 12.5 mg/kg/injection, schedule: Q01DX005 (ip), vehicle: Klucel (hydroxypropylcellulose) (HPC)) 100 % of control; under setting [10], 100 % of control; under setting [11], 101 % of control.
